Experimental data: patent US20230382926A1, “COMPOUNDS AND USES THEREOF” (The University of The West Indies, priority 2022, published 2023)

Assays:
MRSA = assay: Rescue concentration of substituted phenyl azaindole derivatives; format: cell-based, Staphylococcus aureus; settings: Amoxicillin fixed at 2 μg/mL
In short: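 Modified checkerboard MIC: fixed CLSI susceptible-breakpoint antibiotic concentration plus twofold dilution series of SP-azaBIM, 10^6 CFU/ml in ca-MHB, 35° C, 24 h aerobic. Only antibiotics to which the strain was resistant were tested. Rescue concentration = lowest compound concentration giving 99.99% growth reduction (visual) at breakpoint.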

K. pneumoniae 7225 = assay: Lethal peritonitis infection model (survival); format: in vivo, Swiss albino mice; settings: for Survival in lethal K. pneumoniae infection: each 10 mg kg^−1 s.c.
Protocol: For both lethal and non-lethal infection models involving Carbapenem resistant Klebsiella pneumoniae suitable strains, number of mice per treatment and bacterial infection dose were predetermined in preliminary experiments.
For the lethal peritonitis infections, mice were treated as in the non-lethal infection studies except the inoculation dose was 2×10^7 CFU mL^−1 K. pneumoniae 7225. The mice were then divided into the previously listed treatment regimens and treatment was provided every 24 h for two days after infection. Mice were monitored for mortality for 7 days and the moribund mice were euthanized humanely using cervical dislocation.
For survival experiments, Swiss albino mice were given lethal doses of K. pneumoniae 7225 (C) (2×10^7 CFU ml^−1) via i.p. injection. Mice were treated the same as in the non-lethal peritonitis experiments and mortality was monitored for 7 days. Data lines represent the percent of mice (n=10 mice per treatment group) that survived daily. […]

[1] = tested on: Klebsiella pneumoniae ATCC BAA-2814; assay: Gene expression analysis by quantitative reverse transcription PCR; format: cell-based
Protocol: Cell treatment and RNA extraction: Overnight cultures of Klebsiella pneumoniae ATCC BAA-2814 grown on Brain Heart Infusion (BHI) agar was harvested and washed in phosphate buffer saline (pH=7.4) twice. Fresh Brain Heart infusion broth was inoculated with K. pneumoniae cells to a final concentration of 10^6 CFU mL^−1. Cells were subjected to the following treatments: T0—Vehicle only (ddH2O); T1—Meropenem only (0.25 MIC; 8 μg mL^−1); T2—Meropenem 0.25 MIC+SP-azaBIM 136 (2 ug mL^−1). Treated cells were incubated at 35° C. at 200 rpm and total RNA was extracted at 1 h and 6 h post exposure using TRIzol reagent (Life Technologies) following the manufacturer's protocol before eluting in DEPC treated water. Three biological replicates were included for each treatment.
Quantitative reverse transcription PCR analysis: Reverse transcription was done using the GoScript Reverse Transcriptase Kit (Promega, USA) employing a mixture (1:1) of random and oligo dT primers with 2 μg RNA as starting material in a 20-μL reaction following the manufacturers protocols. cDNA samples were then quantified by real-time PCR using specific primers in an Applied Biosystems 7500 Fast Real-Time PCR system (Life Technologies Corp., USA) and the data analysed using the 2^(−ΔΔct) method. Thermal cycling was performed using a two-step PCR amplification standard procedure at 95° C. for 30 s and 35 cycles of 95° C. for 5 s and 60° C. for 30 s. The expression levels of all the genes were normalized using the K. pneumoniae RNA polymerase sigma factor (rpoD) gene as an internal standard.
To examine this hypothesis, we investigated the expression of genes in K. pneumoniae ATCC […] that were affected by SP-azaBIM 136 treatment. Expression of key transcription factors and their associated downstream resistance and pathogenicity genes was examined in Klebsiella pneumoniae cells treated with meropenem and a combination of meropenem and SP-azaBIM 136. Cells in the exponential phase were either treated with 0.25 MIC (8 μg mL^−1) of Meropenem only or a combination of 0.25 MIC meropenem and 10 μg mL^−1 of SP-azaBIM 136. Untreated cells served as the control for baseline gene expression. Cells were exposed to each agent for 1 h and 6 h, after which the total RNA was extracted, and cDNA synthesis performed. […] The addition of SP-azaBIM 136 was theorized to revert the expression of the relevant genes closer to baseline expression levels.

[2] = Meropenem 0.25 MIC + SP-azaBIM 136, 6 h
[3] = addition of SP-azaBIM 136 to meropenem, versus meropenem only

Row | Compound | Rescue concentration, MRSA Amoxicillin (2 μg/mL) (MRSA) | Protection to lethal infections (K. pneumoniae 7225; SP-azaBIM 136 on its own) | Survival in lethal K. pneumoniae infection (K. pneumoniae 7225; co-treatment with Ciprofloxacin, 7 days) | Survival in lethal K. pneumoniae infection (K. pneumoniae 7225; co-treatment with Meropenem, 7 days) | Mortality in lethal K. pneumoniae infection (K. pneumoniae 7225; monotherapy 10 mg kg^−1 s.c., 2×10^7 CFU ml^−1 i.p., 7 days) | ROB gene expression relative to baseline levels ([1]; Meropenem 0.25 MIC + SP-azaBIM 136 (2 ug mL^−1, 10 μg mL^−1 elsewhere in the source), 1 h) | soxS gene expression compared to untreated cells ([1]; Meropenem 0.25 MIC + SP-azaBIM 136, 1 h) | ROB gene expression relative to baseline levels [1, 2] | soxS gene expression compared to untreated cells [1, 2] | Expression of extended spectrum beta-lactamases and carbapenemase gene KPC ([1]; Meropenem + SP-azaBIM 136) | TEM-1 gene expression ([1]; Meropenem + SP-azaBIM 136) | marA regulatory gene expression response ([1]; Meropenem + SP-azaBIM 136) | Virulence gene expression (fimH, entB, iutA, rpmA) ([1]; SP-azaBIM 136 added to meropenem, 1 h and 6 h) | Reduction in mexA gene expression [1, 3] | Reduction in norB gene expression [1, 3]
1 | Brc1ccc(C(c2c[nH]c3cnccc23)c2c[nH]c3cnccc23)cc1 [SP-6azaBIM 125, 3,3′-((4-bromophenyl)methylene)bis(1H-pyrrolo[2,3-c]pyridine)] | 0.5 µg/mL |  |  |  |  |  |  |  |  |  |  |  |  |  | 
2 | Oc1ccc(C(c2c[nH]c3cnccc23)c2c[nH]c3cnccc23)cc1 [SP-6azaBIM 136, 4-(bis(1H-pyrrolo[2,3-c]pyridin-3-yl)methyl)phenol] | 8 µg/mL | nor provide any protection to lethal infections | 100% | 90% | 100% | 0.35 times that of baseline levels | 0.28 fold | 1.4 fold | 0.76 fold | significantly suppressed | no significant variation in expression | not as profound as the other two genes | expression decreased significantly | 17 fold | 4.5 fold
